Entries after “also recorded” stand apart in the source; their conditions may differ. Where two headings read alike, the source gives them in different places.
Columns and labels:
BChE [1] = molecular target: T1, BChE (Homo sapiens, UniProt P06276); assay: BChE inhibition, modified Ellman method; assay type: biochemical; settings: for inhibition at 50 µM: read-out: BChE % inhibition at 50 µM; for BChE inhibition, outcome in words: 50 µM screening
Description: (§1) Cholinesterase inhibitory activities of all analogs were evaluated spectrometrically using the modified Ellman method as previously reported. […] The absorbance of each well was measured at 415 nm using a microplate reader. IC50 and inhibition values were calculated with the software GraphPad Prism as the mean of three independent experiments and expressed as mean ± SEM[42],[43].

AChE [2] = molecular target: T2, AChE (Homo sapiens, UniProt P22303); assay: biochemical; settings: for inhibition at 50 µM: read-out: AChE % inhibition at 50 µM
T2 sequence (P22303 32-614): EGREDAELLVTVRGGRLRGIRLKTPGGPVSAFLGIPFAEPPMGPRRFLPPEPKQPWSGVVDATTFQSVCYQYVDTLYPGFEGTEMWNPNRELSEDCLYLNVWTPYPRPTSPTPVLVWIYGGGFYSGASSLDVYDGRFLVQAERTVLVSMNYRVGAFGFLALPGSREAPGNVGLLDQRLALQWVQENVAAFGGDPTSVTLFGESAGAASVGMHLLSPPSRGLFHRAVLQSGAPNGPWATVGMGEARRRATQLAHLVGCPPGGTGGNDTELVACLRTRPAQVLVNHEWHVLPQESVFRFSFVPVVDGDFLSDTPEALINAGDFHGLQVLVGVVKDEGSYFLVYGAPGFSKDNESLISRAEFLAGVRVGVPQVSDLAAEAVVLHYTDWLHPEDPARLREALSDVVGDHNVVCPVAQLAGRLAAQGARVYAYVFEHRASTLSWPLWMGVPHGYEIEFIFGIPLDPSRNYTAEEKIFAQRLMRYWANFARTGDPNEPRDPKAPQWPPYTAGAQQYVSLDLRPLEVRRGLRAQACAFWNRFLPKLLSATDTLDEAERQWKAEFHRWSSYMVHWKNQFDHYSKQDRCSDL
Description: as §1

AChE [3] = molecular target: T2, AChE; assay: Enzyme kinetic study against AChE (Lineweaver–Burk); assay type: biochemical
Description: To investigate the type of inhibition of AChE and BChE, kinetic studies of 3m were conducted using various concentrations of ATCI or BTCI as a substrate.
(§2) A Lineweaver–Burk plot was generated to identify the type of inhibition and the Michaelis–Menten constant (Km) value was determined from plot between reciprocal of the substrate concentration (1/[S]) and reciprocal of enzyme rate (1/V) over the various inhibitor concentrations[44],[45].

BChE [4] = molecular target: T1, BChE; assay: Enzyme kinetic study against BChE (Lineweaver–Burk); assay type: biochemical
Description: as §2

hBChE = test system: hBChE; parameters: method as in PMID 23078965; settings: previously reported; cited from earlier work
hAChE = test system: hAChE; parameters: method as in PMID 23078965; settings: previously reported; cited from earlier work
BChE [5] = molecular target: T1, BChE; parameters: method as in doi:10.5530/ijper.52.4.75; settings: previously reported; unit inferred; cited from earlier work
AChE [6] = molecular target: T2, AChE; parameters: method as in doi:10.5530/ijper.52.4.75; settings: previously reported; unit inferred; cited from earlier work

T1 sequence (P06276 29-602, species assumed): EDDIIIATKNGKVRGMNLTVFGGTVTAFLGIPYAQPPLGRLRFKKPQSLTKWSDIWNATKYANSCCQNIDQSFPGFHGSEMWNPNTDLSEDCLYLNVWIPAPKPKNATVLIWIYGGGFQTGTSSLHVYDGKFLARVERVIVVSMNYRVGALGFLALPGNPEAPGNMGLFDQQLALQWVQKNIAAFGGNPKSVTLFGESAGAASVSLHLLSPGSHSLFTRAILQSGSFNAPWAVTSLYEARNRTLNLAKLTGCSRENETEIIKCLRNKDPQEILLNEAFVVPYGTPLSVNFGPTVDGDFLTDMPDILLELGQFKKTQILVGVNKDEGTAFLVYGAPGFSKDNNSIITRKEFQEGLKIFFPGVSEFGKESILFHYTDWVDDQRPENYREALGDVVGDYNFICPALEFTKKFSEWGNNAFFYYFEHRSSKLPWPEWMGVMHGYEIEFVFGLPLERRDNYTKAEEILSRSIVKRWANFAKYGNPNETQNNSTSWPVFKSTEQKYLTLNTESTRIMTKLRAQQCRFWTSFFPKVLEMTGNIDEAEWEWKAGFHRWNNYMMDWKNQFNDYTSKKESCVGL

| SMILES | inhibition at 50 µM (BChE [1]; 50 µM, mean ± S.E) [%] | inhibition at 50 µM (AChE [2]; 50 µM, mean ± S.E) [%] | other results |
| --- | --- | --- | --- |
| COc1ccc(Nc2ncc(-c3ccccc3)cc2[N+](=O)[O-])cc1 [3a, N-(4-Methoxyphenyl)-3-nitro-5-phenylpyridin-2-amine] | 22.1 ± 0.33 | 28.1 ± 3.93 | – |
| O=[N+]([O-])c1cc(-c2ccccc2)cnc1Nc1ccc(Cl)cc1 [3b, N-(4-Chlorophenyl)-3-nitro-5-phenylpyridin-2-amine] | 27.5 ± 1.92 | 59.9 ± 11 | – |
| COc1ccc(Nc2ncc(-c3ccc(F)cc3)cc2[N+](=O)[O-])cc1 [3c, 5-(4-Fluorophenyl)-N-(4-methoxyphenyl)-3-nitropyridin-2-amine] | 3.4 ± 1.63 | 10.7 ± 2.31 | BChE inhibition, outcome in words (BChE [1]): almost inactive |
| Cc1ccc(Nc2ncc(-c3ccc(F)cc3)cc2[N+](=O)[O-])cc1 [3d, 5-(4-Fluorophenyl)-3-nitro-N-(p-tolyl)pyridin-2-amine] | 46.4 ± 2.42 | 39.4 ± 1.56 | – |
| O=[N+]([O-])c1cc(-c2ccc(F)cc2)cnc1Nc1ccc(Cl)cc1 [3e, N-(4-Chlorophenyl)-5-(4-fluorophenyl)-3-nitropyridin-2-amine] | 19.6 ± 1.49 | 19.3 ± 3.3 | BChE inhibition, outcome in words (BChE [1]): almost inactive |
| COc1ccc(Nc2ncc(-c3ccc(Cl)cc3)cc2[N+](=O)[O-])cc1 [3f, 5-(4-Chlorophenyl)-N-(4-methoxyphenyl)-3-nitropyridin-2-amine] | 31.7 ± 1.1 | 33 ± 1.86 | – |
| O=[N+]([O-])c1cc(-c2ccc(Cl)cc2)cnc1Nc1ccc(Cl)cc1 [3g, N,5-Bis(4-chlorophenyl)-3-nitropyridin-2-amine] | 12.3 ± 0.99 | 17.8 ± 2.74 | – |
| Cc1ccccc1Nc1ncc(-c2ccc(Cl)cc2)cc1[N+](=O)[O-] [3h, 5-(4-Chlorophenyl)-3-nitro-N-(o-tolyl)pyridin-2-amine] | 14.6 ± 1.95 | 23.1 ± 8.61 | – |
| O=[N+]([O-])c1cc(-c2ccc(Cl)cc2)cnc1Nc1cccc2ccccc12 [3i, 5-(4-Chlorophenyl)-N-(naphthalen-1-yl)-3-nitropyridin-2-amine] | 35.3 ± 5.14 | 39.7 ± 1.67 | – |
| COc1ccc(Nc2ncc(-c3ccc(Br)cc3)cc2[N+](=O)[O-])cc1 [3j, 5-(4-Bromophenyl)-N-(4-methoxyphenyl)-3-nitropyridin-2-amine] | 46.1 ± 0.92 | 38.8 ± 3.27 | – |
| O=[N+]([O-])c1cc(-c2ccc(Br)cc2)cnc1Nc1ccc(Cl)cc1 [3k, 5-(4-Bromophenyl)-N-(4-chlorophenyl)-3-nitropyridin-2-amine] | 12.8 ± 1.7 | 27.8 ± 1.75 | – |
| Cc1ccc(Nc2ncc(-c3ccc(Br)cc3)cc2[N+](=O)[O-])cc1 [3l, 5-(4-Bromophenyl)-3-nitro-N-(p-tolyl)pyridin-2-amine] | 6.96 ± 0.74 | 24.9 ± 5.01 | – |
| CC(C)(C)c1cc[n+](-c2cnc(Nc3ccc(Cl)cc3)c([N+](=O)[O-])c2)cc1.[O-][Cl+3]([O-])([O-])[O-] [3m, 4-(Tert-butyl)-6ʹ-((4-chlorophenyl)amino)-5'-nitro-[1,3'-bipyridin]-1-ium perchlorate] | – | – | type of inhibition, AChE (AChE [3]; Lineweaver–Burk plot): mixed inhibition; also recorded: mix-type inhibition; Ki (AChE [3]; secondary plot of Lineweaver–Burk data, substrate ATCI, read-out: inhibition constant (Ki), AChE): 8.92 µM; type of inhibition, BChE (BChE [4]; Lineweaver–Burk plot): mixed type of inhibition; also recorded: mix-type inhibition; Kis, BChE (BChE [4]; plot of 1/Vmax vs inhibitor concentration, substrate BTCI): 46.27 µM; Ki (BChE [4]; plot of slope vs inhibitor concentration, substrate BTCI): 17.5 µM; IC50 (BChE [1]): 20.7 ± 1.01 µM; selectivity ratio for BChE over AChE (BChE [1]): 1.686; inhibition at 50 µM (BChE [1]): 76.7 ± 6.01%; IC50 (AChE [2]): 34.8 ± 3.71 µM; inhibition at 50 µM (AChE [2]): 74.3 ± 5.86% |
| Cc1ccccc1Nc1ncc(-c2cccc3ccccc23)cc1[N+](=O)[O-] [3n, 5-(Naphthalen-1-yl)-3-nitro-N-(o-tolyl)pyridin-2-amine] | 38.9 ± 2.97 | 40.7 ± 2.6 | – |
| Cc1ccc(Nc2ncc(-c3cccc4ccccc34)cc2[N+](=O)[O-])cc1 [3o, 5-(Naphthalen-1-yl)-3-nitro-N-(p-tolyl)pyridin-2-amine] | 22.8 ± 2.7 | 35.6 ± 4.63 | – |
| O=[N+]([O-])c1cc(-c2cccc3ccccc23)cnc1Nc1ccc(Cl)cc1 [3p, N-(4-Chlorophenyl)-5-(naphthalen-1-yl)-3-nitropyridin-2-amine] | 11.7 ± 0.12 | 21.4 ± 1.86 | – |
| O=[N+]([O-])c1cc(-c2cccc3ccccc23)cnc1Nc1cccc2ccccc12 [3q, N,5-Di(naphthalen-1-yl)-3-nitropyridin-2-amine] | 53.07 ± 0.42 | 34 ± 2.39 | – |
| N#Cc1cc(C#N)c(NCCCC2CCN(Cc3ccccc3)CC2)nc1N [A] | – | – | IC50 (hBChE): 6.6 ± 0.7 µM; IC50 (hAChE): 0.0094 ± 0.0004 µM; selectivity against hAChE than hBChE (hAChE): 703 fold |
| O=C(N/N=C(/c1ccc(O)cc1)c1cccc(O)c1)Nc1ccncc1 [B] | – | – | IC50 (BChE [5]): 6.44 ± 0.65 µM; IC50 (AChE [6]): 5.58 ± 0.016 µM |

— article PMC11178820, “Synthesis of novel aryl-substituted 2-aminopyridine derivatives by the cascade reaction of 1,1-enediamines with vinamidinium salts to develop novel anti-Alzheimer agents” (Scientific Reports, 2024)
